Results from patent US10023557B2 (LifeSci Pharmaceuticals, Inc., priority 2015, dated 2018).
pEC50, pIC50: −log10 of the molar value.

Tests used:
human plasma kallikrein = human plasma kallikrein (Homo sapiens (Human), UniProt P03952); assay: In vitro enzyme inhibition of human plasma kallikrein (PFR-AMC cleavage); assay type: biochemical; settings: Pro-Phe-Arg-AMC substrate, 37° C., read-out: hPK IC50
In short: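 Human plasma kallikrein and compound, diluted in 50 mM Tris-HCl pH 7.5, 150 mM NaCl, 0.01% Triton X-100, preincubated 5 min at 37 °C before PFR-AMC was added.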

[1] = biological target: cellular kallikrein activity (Homo sapiens (Human), UniProt P03952); assay: In vitro cellular assay (contact assay): kallikrein activity in ellagic acid-activated human plasma, Z-FR-2-AMC substrate; assay type: biochemical; settings: human plasma activated with ellagic acid, 37° C.
Chain of cellular kallikrein activity (P03952 391-638): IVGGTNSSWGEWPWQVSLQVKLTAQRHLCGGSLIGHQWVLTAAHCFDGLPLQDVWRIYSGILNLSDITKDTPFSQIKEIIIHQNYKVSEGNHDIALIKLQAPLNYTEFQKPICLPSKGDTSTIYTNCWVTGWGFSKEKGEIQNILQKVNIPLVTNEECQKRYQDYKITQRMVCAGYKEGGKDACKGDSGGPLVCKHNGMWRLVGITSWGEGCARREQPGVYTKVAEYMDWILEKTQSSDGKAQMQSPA
Chain of cellular kallikrein activity (P03952 20-390 partner): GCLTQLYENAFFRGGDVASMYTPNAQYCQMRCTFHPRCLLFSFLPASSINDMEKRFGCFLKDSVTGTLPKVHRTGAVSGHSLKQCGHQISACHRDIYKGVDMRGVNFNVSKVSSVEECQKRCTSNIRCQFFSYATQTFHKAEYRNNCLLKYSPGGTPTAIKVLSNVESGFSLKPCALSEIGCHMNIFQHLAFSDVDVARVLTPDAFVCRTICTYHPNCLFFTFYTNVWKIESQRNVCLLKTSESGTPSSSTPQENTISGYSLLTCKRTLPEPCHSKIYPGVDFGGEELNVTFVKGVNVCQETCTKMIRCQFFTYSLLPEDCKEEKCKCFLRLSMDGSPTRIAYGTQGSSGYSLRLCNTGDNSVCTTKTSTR
Method: The ability of the compounds disclosed herein to inhibit cellular kallikrein activity was quantified and the respective EC50 value was determined.
All dilutions were prepared in an assay buffer comprising 50 mM Tris-HCl pH 7.2, 150 mM NaCl, and 0.01% Triton X-100.
The ten solutions of the test compounds, prepared by serial dilution, were further diluted 50-fold in the assay buffer.
Human plasma is thawed on ice and centrifuged for 15 min at 4° C. to remove platelets. A 1 mM stock solution of ellagic acid is diluted to 8 μM and mixed with human plasma, after removing platelets, at a ratio of 1:0.8.
A 22.5 μL volume of the final mixture of human plasma and ellagic acid was added to a 96-well microwell plate and the plate was incubated for 15 min at 37° C.
The CINH inhibitor at various concentrations, prepared by serial dilutions as described above, were added to the inhibitor control wells. […] Each CINH concentration is tested in duplicates.
The test compounds at various concentrations, also prepared by serial dilutions as described above, are added to the test wells. […] Each test compound concentration was tested in duplicates.
In addition to the inhibitor control and test wells, the 96 well assay plate includes positive control wells which contained the mixture of human plasma and ellagic acid without C1NH inhibitor or test compounds, and background wells which contained neither the mixture of human plasma and ellagic acid nor the test compounds. The total volume of liquid in positive control and background wells was brought up to 35 μL, using the assay buffer.
The assay plate containing C1NH inhibitors and test compounds mixed with human plasma and ellagic acid and appropriate controls was incubated at 37° C. for 5 min. […] The reagents were mixed well by shaking the plate gently for 30 sec.
The enzyme reaction was quantified by immediate kinetic reading of the assay plate using excitation/emission wavelengths of 330 nm/440 nm respectively. Fluorescence intensity was recorded for 60 min, using a time interval of 43 sec.
The inhibition activity of the test compounds were evaluated using the EC50 values, calculated according to the dose-response curve of the test compounds, fitted using the “log(inhibitor)−response (variable slope)” equation in GraphPadPrism software (GraphPad Software, Inc.).
The percentage inhibition was calculated using the following equation:
[formula] where, Mean (BG) is the average value of the fluorescence intensity of the background wells and Mean (PC) is the average value of the fluorescence intensity of the positive control wells.
Table 4 provides the EC50 values of various compounds disclosed herein.

Chain of human plasma kallikrein (P03952 391-638): as the sequence (P03952 391-638) above
Chain of human plasma kallikrein (P03952 20-390 partner): as the sequence (P03952 20-390 partner) above

## CC(C)(O)c1cc(Cc2cc(C(=O)NCc3n[nH]c4ccc(Cl)cc34)ccn2)cc2cc(Cl)cnc12 [Example 225, N-((5-chloro-1H-indazol-3-yl)methyl)-2-((3-chloro-8-(2-hydroxypropan-2-yl)quinolin-6-yl)methyl)isonicotinamide]
Human plasma kallikrein
  pIC50: > 7.00
[1]
  pEC50: 6.00 to 7.00

## Cc1cc(N)nc(C)c1CNC(=O)c1ccnc(Cc2cnc3cc(F)c(Cl)cc3c2)c1 [Example 226, N-((6-amino-2,4-dimethylpyridin-3-yl)methyl)-2-((6-chloro-7-fluoroquinolin-3-yl)methyl)isonicotinamide]
Human plasma kallikrein
  pIC50: > 7.00
[1]
  pEC50: > 7.00

## Cc1cc(N)nc(C)c1CNC(=O)c1ccnc(Cc2ccc3ncc(C(F)(F)F)cc3c2)c1 [Example 228, N-((6-amino-2,4-dimethylpyridin-3-yl)methyl)-2-((3-(trifluoromethyl)quinolin-6-yl)methyl)isonicotinamide]
Human plasma kallikrein
  pIC50: > 7.00
[1]
  pEC50: > 7.00

## Cc1nc(N)ccc1CNC(=O)c1ccnc(Cc2ccc3ncc(C(F)(F)F)cc3c2)c1 [Example 229, N-((6-amino-2-methylpyridin-3-yl)methyl)-2-((3-(trifluoromethyl)quinolin-6-yl)methyl)isonicotinamide]
Human plasma kallikrein
  pIC50: > 7.00
[1]
  pEC50: > 7.00

## O=C(NCc1cc2c(Cl)c[nH]c2cc1F)c1ccnc(Cc2ccc3ncc(C(F)(F)F)cc3c2)c1 [Example 230, N-((3-chloro-6-fluoro-1H-indol-5-yl)methyl)-2-((3-(trifluoromethyl)quinolin-6-yl)methyl)isonicotinamide]
Human plasma kallikrein
  pIC50: > 7.00
[1]
  pEC50: 6.00 to 7.00

## O=C(NCc1cnc2[nH]cc(Cl)c2c1)c1ccnc(Cc2ccc3ncc(C(F)(F)F)cc3c2)c1 [Example 231, N-((3-chloro-1H-pyrrolo[2,3-b]pyridin-5-yl)methyl)-2-((3-(trifluoromethyl)quinolin-6-yl)methyl)isonicotinamide]
Human plasma kallikrein
  pIC50: > 7.00
[1]
  pEC50: 6.00 to 7.00

## Nc1nccc2cc(CNC(=O)c3ccnc(Cc4ccc5ncc(C(F)(F)F)cc5c4)c3)ccc12 [Example 232, N-((1-aminoisoquinolin-6-yl)methyl)-2-((3-(trifluoromethyl)quinolin-6-yl)methyl)isonicotinamide]
Human plasma kallikrein
  pIC50: > 7.00
[1]
  pEC50: > 7.00

## O=C(NCc1ccc2[nH]cc(Cl)c2c1F)c1ccnc(Cc2ccc3ncc(C(F)(F)F)cc3c2)c1 [Example 234, N-((3-chloro-4-fluoro-1H-indol-5-yl)methyl)-2-((3-(trifluoromethyl)quinolin-6-yl)methyl)isonicotinamide]
Human plasma kallikrein
  pIC50: > 7.00
[1]
  pEC50: 6.00 to 7.00

## Cc1cc(N)nc(C)c1CNC(=O)c1ccnc(Cc2cc(S(N)(=O)=O)c3ncc(Cl)cc3c2)c1 [Example 235, N-((6-amino-2,4-dimethylpyridin-3-yl)methyl)-2-((3-chloro-8-sulfamoylquinolin-6-yl)methyl)isonicotinamide]
Human plasma kallikrein
  pIC50: > 7.00
[1]
  pEC50: > 7.00

## Cc1nc(N)ccc1CNC(=O)c1ccnc(Cc2cc(S(N)(=O)=O)c3ncc(Cl)cc3c2)c1 [Example 236]
Human plasma kallikrein
  pIC50: > 7.00
[1]
  pEC50: > 7.00

## Cc1cc(N)nc(C)c1CNC(=O)c1ccnc(Cc2ccc3nc(C)c(Cl)cc3c2)c1 [Example 238, N-((6-amino-2,4-dimethylpyridin-3-yl)methyl)-2-((3-chloro-2-methylquinolin-6-yl)methyl)isonicotinamide]
Human plasma kallikrein
  pIC50: > 7.00
[1]
  pEC50: > 7.00

## Cc1nc2ccc(Cc3cc(C(=O)NCc4ccc(N)nc4C)ccn3)cc2cc1Cl [Example 239, N-((6-amino-2-methylpyridin-3-yl)methyl)-2-((3-chloro-2-methylquinolin-6-yl)methyl)isonicotinamide]
Human plasma kallikrein
  pIC50: > 7.00
[1]
  pEC50: 6.00 to 7.00

## Cc1cc(N)nc(C)c1CNC(=O)c1ccnc(Cc2cc(CN)c3ncc(Cl)cc3c2)c1 [Example 241, N-((6-amino-2,4-dimethylpyridin-3-yl)methyl)-2-((8-(aminomethyl)-3-chloroquinolin-6-yl)methyl)isonicotinamide]
Human plasma kallikrein
  pIC50: > 7.00
[1]
  pEC50: > 7.00

## Cc1cc(N)nc(C)c1CNC(=O)c1ccnc(Cc2ccc3ncc(C4CC4)cc3c2)c1 [Example 243, N-((6-amino-2,4-dimethylpyridin-3-yl)methyl)-2-((3-cyclopropylquinolin-6-yl)methyl)isonicotinamide]
Human plasma kallikrein
  pIC50: > 7.00
[1]
  pEC50: > 7.00

## O=C(NCc1cc2c(Cl)c[nH]c2cc1F)c1ccnc(Cc2ccc3ncc(C4CC4)cc3c2)c1 [Example 245, N-((3-chloro-6-fluoro-1H-indol-5-yl)methyl)-2-((3-cyclopropylquinolin-6-yl)methyl)isonicotinamide]
Human plasma kallikrein
  pIC50: > 7.00
[1]
  pEC50: 6.00 to 7.00

## O=C(NCc1cnc2[nH]cc(Cl)c2c1)c1ccnc(Cc2ccc3ncc(C4CC4)cc3c2)c1 [Example 246, N-((3-chloro-1H-pyrrolo[2,3-b]pyridin-5-yl)methyl)-2-((3-cyclopropylquinolin-6-yl)methyl)isonicotinamide]
Human plasma kallikrein
  pIC50: > 7.00
[1]
  pEC50: 6.00 to 7.00

## Nc1nccc2cc(CNC(=O)c3ccnc(Cc4ccc5ncc(C6CC6)cc5c4)c3)ccc12 [Example 247, N-((1-aminoisoquinolin-6-yl)methyl)-2-((3-cyclopropylquinolin-6-yl)methyl)isonicotinamide]
Human plasma kallikrein
  pIC50: > 7.00
[1]
  pEC50: > 7.00

## O=C(NCc1ccc2[nH]cc(Cl)c2c1F)c1ccnc(Cc2ccc3ncc(C4CC4)cc3c2)c1 [Example 248, N-((3-chloro-4-fluoro-1H-indol-5-yl)methyl)-2-((3-cyclopropylquinolin-6-yl)methyl)isonicotinamide]
Human plasma kallikrein
  pIC50: > 7.00
[1]
  pEC50: 6.00 to 7.00

## O=C(NCc1n[nH]c2ccc(Cl)cc12)c1ccnc(Cc2ccc3ncc(C4CC4)cc3c2)c1 [Example 249, N-((5-chloro-1H-indazol-3-yl)methyl)-2-((3-cyclopropylquinolin-6-yl)methyl)isonicotinamide]
Human plasma kallikrein
  pIC50: > 7.00
[1]
  pEC50: 6.00 to 7.00

## Cc1nc(N)ccc1CNC(=O)c1ccnc(Cc2cc(CN)c3ncc(Cl)cc3c2)c1 [Example 253, N-((6-amino-2-methylpyridin-3-yl)methyl)-2-((8-(aminomethyl)-3-chloroquinolin-6-yl)methyl)isonicotinamide]
Human plasma kallikrein
  pIC50: > 7.00
[1]
  pEC50: > 7.00

## Cc1cc(N)nc(C)c1CNC(=O)c1ccnc(Cc2ccc3ncc(C(C)C)cc3c2)c1 [Example 254, N-((6-amino-2,4-dimethylpyridin-3-yl)methyl)-2-((3-isopropylquinolin-6-yl)methyl)isonicotinamide]
Human plasma kallikrein
  pIC50: > 7.00
[1]
  pEC50: > 7.00

## CCCc1cnc2ccc(Cc3cc(C(=O)NCc4c(C)cc(N)nc4C)ccn3)cc2c1 [Example 255, N-((6-amino-2,4-dimethylpyridin-3-yl)methyl)-2-((3-propylquinolin-6-yl)methyl)isonicotinamide]
Human plasma kallikrein
  pIC50: > 7.00
[1]
  pEC50: > 7.00

## COc1cnc2ccc(Cc3cc(C(=O)NCc4c(C)cc(N)nc4C)ccn3)cc2c1 [Example 264, N-((6-amino-2,4-dimethylpyridin-3-yl)methyl)-2-((3-methoxyquinolin-6-yl)methyl)isonicotinamide]
Human plasma kallikrein
  pIC50: > 7.00
[1]
  pEC50: > 7.00

## Cc1cc(N)nc(C)c1CNC(=O)c1ccnc(Cc2cc(-c3nnn[nH]3)c3ncc(Cl)cc3c2)c1 [Example 272, N-((6-amino-2,4-dimethylpyridin-3-yl)methyl)-2-((3-chloro-8-(1H-tetrazol-5-yl)quinolin-6-yl)methyl)isonicotinamide]
Human plasma kallikrein
  pIC50: > 7.00
[1]
  pEC50: 6.00 to 7.00

## Cc1cc(N)nc(C)c1CNC(=O)c1ccnc(C(O)c2ccc3ncc(Cl)cc3c2)c1 (stereo not drawn) [Example 275, N-((6-amino-2,4-dimethylpyridin-3-yl)methyl)-2-((3-chloroquinolin-6-yl)(hydroxy)methyl)isonicotinamide]
Human plasma kallikrein
  pIC50: > 7.00
[1]
  pEC50: 6.00 to 7.00

## Cc1cc(N)nc(C)c1CNC(=O)c1ccnc(C(N)c2ccc3ncc(Cl)cc3c2)c1 (stereo not drawn) [Example 276, 2-[Amino-(3-chloro-quinolin-6-yl)-methyl]-N-(6-amino-2,4-dimethyl-pyridin-3-ylmethyl)-isonicotinamide]
Human plasma kallikrein
  pIC50: > 7.00
[1]
  pEC50: 6.00 to 7.00

## Cc1cc(N)nc(C)c1CNC(=O)c1ccnc(C(C)(O)c2ccc3ncc(Cl)cc3c2)c1 (stereo not drawn) [Example 277, N-((6-amino-2,4-dimethylpyridin-3-yl)methyl)-2-(1-(3-chloroquinolin-6-yl)-1-hydroxyethyl)isonicotinamide]
Human plasma kallikrein
  pIC50: 6.00 to 7.00
[1]
  pEC50: 6.00 to 7.00
